Results published in US20240109881A1, “Heteroaryl Compounds as Ligand Directed Degraders of IRAK4” (Bristol-Myers Squibb Company, priority 2022, published 2024).
Counter-ions that a name gives are not always drawn. Like-named read-outs stand apart in the source and are kept apart here.

Tests used:
IRAK4 [1] = biological target: T1, IRAK4 (Homo sapiens, UniProt Q9NWZ3); assay: ALE THP1 HTRF (Advanced Lipoxidation End Product THP1 Homogeneous Time Resolved Fluorescence); format: cell-based; details: THP1 cells
T1 construct: endogenous in cells; host or cells: THP-1 cells
T1 sequence (Q9NWZ3 1-460): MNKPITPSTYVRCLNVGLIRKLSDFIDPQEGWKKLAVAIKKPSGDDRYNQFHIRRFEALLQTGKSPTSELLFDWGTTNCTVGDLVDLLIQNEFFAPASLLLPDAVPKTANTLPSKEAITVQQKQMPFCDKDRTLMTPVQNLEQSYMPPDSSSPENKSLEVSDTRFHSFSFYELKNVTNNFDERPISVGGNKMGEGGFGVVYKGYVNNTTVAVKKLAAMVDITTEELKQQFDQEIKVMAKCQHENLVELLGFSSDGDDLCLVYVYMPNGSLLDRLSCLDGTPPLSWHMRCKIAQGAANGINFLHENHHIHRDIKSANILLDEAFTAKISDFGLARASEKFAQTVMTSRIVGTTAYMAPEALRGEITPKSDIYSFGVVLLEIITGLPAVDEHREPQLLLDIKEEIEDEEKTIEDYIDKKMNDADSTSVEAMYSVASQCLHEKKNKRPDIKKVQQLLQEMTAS
Outline: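 Cells lysed 45 min at room temperature; lysates normalized to total protein by BCA. Total IRAK4 detected by HTRF sandwich (anti-IRAK4-d2 plus anti-IRAK4-cryptate), incubated overnight in the dark at room temperature, read on a time-resolved fluorescence plate reader.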

IRAK4 [2] = biological target: T1, IRAK4; assay: LVL THP1 HTRF (THP1 Homogeneous Time Resolved Fluorescence); format: cell-based; details: THP1 cells, 18 h incubation with compound; for DC50: read-out: LVL THP1 HTRF EC50
Outline: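 THP-1 cells in phenol red-free RPMI with 10% FBS were dosed with compound (20 nL in DMSO) for 18 h at 37° C. After 2 h lysis, IRAK4 was detected with anti-IRAK4-d2/anti-IRAK4-K HTRF antibodies for 18 h at room temperature and read at 665/615 nm; a parallel CTG plate was run.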

[3] = Pharmacokinetic studies in mice (plasma PK, IV and PO); format: in vivo; details: female C57B16 mice; for FPO: PO 3.0 mg/kg vs IV 0.50 mg/kg, dose-normalized AUCLAST; for clearance: read-out: Clp; for Vd: read-out: VSS
Experimental: Due to the higher molecular weight and lipophilicity, targeted protein degraders generally occupy a physiochemical property space that is beyond Lipinski's rule of 5 and as consequence are expected to have poor oral bioavailability and overall pharmacokinetic properties. […] The plasma pharmacokinetics (PK) of P-394, P-155, P-139, and P-160 were characterized in female C57B16 mice following intravenous (IV; 0.5 mg/kg) administration. Plasma from the tail vein was withdrawn in composite fashion: one group of mice (n=3) provided samples at 2 min, 30 min, 2 h, and 8 h, while another group (n=3) provided samples at 15 min, 1 h, 4 h, and 24 h. The concentrations of test article in these samples were measured using reverse-phase LC-MS-MS and then plotted as a function of time. The resulting concentration-time data was processed using noncompartmental analysis for the calculation of clearance (Cl), volume of distribution at steady state (Vss), half-life, mean residence time (MRT) and area under the time curve (AUC).
Similarly, the PK was characterized following oral (PO; 3 mg/kg) administration. Again, plasma from the tail vein was withdrawn in composite fashion: one group of mice (n=3) provided samples at 15 min, 1 h, 4 h, and 8 h, while another group (n=3) provided samples at […], 2 h, and 24 h. Oral bioavailability (FPO) was calculated by comparing the results of the studies described, dividing the dose-normalized AUCLAST,PO by the dose-normalized AUCLAST,IV.

[4] = mouse, 0.5 mg/kg, IV 0.50 mg/kg, plasma
[5] = mouse, 0.5 mg/kg, plasma, IV 0.50 mg/kg

| Structure (SMILES) | ALE THP1 HTRF YMIN (IRAK4 [1]) | EC50 (IRAK4 [1]) | LVL THP1 HTRF YMIN (IRAK4 [2]) | DC50 (IRAK4 [2]) | other results |
| --- | --- | --- | --- | --- | --- |
| C[C@H](C#N)Nc1cc(-n2ncc3cc(C#N)cnc32)ncc1-n1cc([C@H]2CC[C@H](CCN3CCN(c4ccc(C5CCC(=O)NC5=O)cc4)CC3)CC2)nn1 (stereo partly drawn) [P-139, 1-(4-(((R)-1-cyanoethyl)amino)-5-(4-((1r,4R)-4-(2-(4-(4-(2,6-dioxopiperidin-3-yl)phenyl)piperazin-1-yl)ethyl)cyclohexyl)-1H-1,2,3-triazol-1-yl)pyridin-2-yl)-1H-pyrazolo[3,4-b]pyridine-5-carbonitrile, formic acid salt] | 5.6% | 1 nM | 1.7% | 11 nM | FPO [3]: 39%; AUC(0-t) [3, 4]: 1.06 µM·h; MRT [3, 4]: 4.59 h; half-life [3, 4]: 2.98 h; clearance [3, 4]: 10.6 mL/min/kg; Vd [3, 4]: 2.91 L/kg; AUC(0-t) ([3]; mouse, PO 3.0 mg/kg, plasma): 2.47 µM·h; Cmax ([3]; mouse, PO 3.0 mg/kg, plasma): 380 nM; Tmax ([3]; mouse, PO 3.0 mg/kg, plasma): 2 h |
| C[C@H](C#N)Nc1cc(-n2ccc3cnc(N)nc32)ncc1C(=O)N[C@H]1CC[C@H](CCN2CCN(c3ccc(C4CCC(=O)NC4=O)cc3)CC2)CC1 (some centres unmarked) [P-163] | 8.4% | 12 nM | <0.5% | 26 nM | – |
| C[C@H](C#N)Nc1cc(-n2ncc3cc(C#N)cnc32)ncc1C(=O)N[C@H]1CC[C@H](CCN2CC3CCC(C2)N3c2ccc(C3CCC(=O)NC3=O)cc2)CC1 (some centres unmarked) [P-164] | 64.0% | 136 nM | 16.8% | > 5000 nM | – |
| C[C@H](C#N)Nc1cc(-n2ncc3cc(C#N)c(N)nc32)ncc1C(=O)N[C@H]1CC[C@H](CCN2CCN(c3ccc(C4CCC(=O)NC4=O)cc3Cl)[C@H](C)C2)CC1 (some centres unmarked) [P-168] | 5.5% | 6 nM | <0.5% | 3 nM | – |
| CS(=O)(=O)N1CCC(Nc2cc(-n3ncc4cc(C#N)cnc43)ncc2-n2cc([C@H]3CC[C@H](CCN4CCN(c5ccc(C6CCC(=O)NC6=O)cc5)CC4)CC3)nn2)CC1 (some centres unmarked) [P-174] | 31.2% | 201 nM | 2.7% | 14 nM | – |
| C[C@H](C#N)Nc1cc(-n2ncc3cc(C#N)c(N)nc32)ncc1C(=O)N[C@H]1CC[C@H](CCN2CCN(c3ccc(C4CCC(=O)NC4=O)cc3)C(=O)C2)CC1 (some centres unmarked) [P-177] | 6.7% | 4 nM | 6.4% | 32 nM | – |
| C[C@H](C#N)Nc1cc(-n2ncc3cc(C#N)c(N)nc32)ncc1C(=O)N[C@H]1CC[C@H](CCN2CCN(c3ccc(C4CCC(=O)NC4=O)cc3)[C@@H](C)C2)CC1 (some centres unmarked) [P-178] | 7.5% | 12 nM | 0.8% | 1 nM | – |
| C[C@H](C#N)Nc1cc(-n2ncc3cc(C#N)cnc32)ncc1C(=O)N[C@H]1CC[C@H](CCN2C[C@H]3C[C@@H](C2)N3c2ccc(C3CCC(=O)NC3=O)cc2)CC1 (some centres unmarked) [P-180] | 7.5% | 6 nM | 18.9% | 702 nM | – |
| C[C@H](C#N)Nc1cc(-n2ncc3cc(C#N)c(N)nc32)ncc1C(=O)N[C@H]1CC[C@H](CCN2CCN(c3ccc(C4CCC(=O)NC4=O)cc3)C(C(F)(F)F)C2)CC1 (some centres unmarked) [P-181] | 27.7% | 168 nM | 18.3% | 112 nM | – |
| C[C@H](C#N)Nc1cc(-n2ncc3cc(C#N)cnc32)ncc1C(=O)N[C@H]1CC[C@H](CCN2CCN(c3ccc(C4CCC(=O)NC4=O)cc3)C3(CCC3)C2)CC1 (some centres unmarked) [P-182] | 9.4% | 5 nM | 6.3% | 415 nM | – |
| C[C@H](C#N)Nc1cc(-n2ncc3cc(C#N)cnc32)ncc1C(=O)N[C@H]1CC[C@H](CCN2[C@@H]3C[C@H]2CN(c2ccc(C4CCC(=O)NC4=O)cc2)C3)CC1 (some centres unmarked) [P-183] | 27.9% | 63 nM | <0.5% | 12 nM | – |

The next lines start with results.

| ALE THP1 HTRF YMIN (IRAK4 [1]) | EC50 (IRAK4 [1]) | LVL THP1 HTRF YMIN (IRAK4 [2]) | DC50 (IRAK4 [2]) | Structure (SMILES) | other results |
| --- | --- | --- | --- | --- | --- |
| 10.2% | 2 nM | 0.9% | 6 nM | C[C@H](C#N)Nc1cc(-n2ncc3cc(C#N)cnc32)ncc1-n1cc(C2CCC(CCN3CCN(c4ccc(C5CCC(=O)NC5=O)cc4)[C@H](C)C3)CC2)nn1 (some centres unmarked) [P-155] | FPO [3]: ~100%; AUC(0-t) [3, 4]: 2.01 µM·h; MRT [3, 4]: 3.3 h; half-life [3, 4]: 4.1 h; clearance [3, 4]: 5.45 mL/min/kg; Vd [3, 4]: 1.08 L/kg; AUC(0-t) ([3]; mouse, PO 3.0 mg/kg, plasma): 13.7 µM·h; Cmax ([3]; mouse, PO 3.0 mg/kg, plasma): 3010 nM; Tmax ([3]; mouse, PO 3.0 mg/kg, plasma): 2 h |
| 6.6% | 6 nM | <0.5% | 12 nM | COc1cc(N2CCN(CC[C@H]3CC[C@H](NC(=O)c4cnc(-n5ncc6cc(C#N)c(N)nc65)cc4N[C@H](C)C#N)CC3)C[C@H]2C)ccc1C1CCC(=O)NC1=O (some centres unmarked) [P-161] | – |
| 6.4% | 3 nM | 0.6% | 8 nM | N#Cc1cc2cnn(-c3cc(NC4CC4)c(-n4cc([C@H]5CC[C@H](CCN6CCN(c7ccc(C8CCC(=O)NC8=O)cc7)CC6)CC5)nn4)cn3)c2nc1N (some centres unmarked) [P-162] | – |
| 5.4% | 2 nM | <0.5% | 6 nM | C[C@H](C#N)Nc1cc(-n2ncc3cc(C#N)c(N)nc32)ncc1C(=O)N[C@H]1CC[C@H](CCN2CCN(c3ccc(C4CCC(=O)NC4=O)cc3F)[C@H](C)C2)CC1 (some centres unmarked) [P-165] | – |
| 8.1% | 8 nM | <0.5% | 21 nM | C[C@H](C#N)Nc1cc(-n2ncc3cc(C#N)c(N)nc32)ncc1C(=O)N[C@H]1CC[C@H](CCN2CCN(c3ccc(C4CCC(=O)NC4=O)cn3)[C@H](C)C2)CC1 (some centres unmarked) [P-166] | – |
| 5.9% | 2 nM | <0.5% | 5 nM | COc1cc(C2CCC(=O)NC2=O)ccc1N1CCN(CC[C@H]2CC[C@H](NC(=O)c3cnc(-n4ncc5cc(C#N)c(N)nc54)cc3N[C@H](C)C#N)CC2)C[C@H]1C (some centres unmarked) [P-167] | – |
| 13.9% | 34 nM | 5.7% | 29 nM | C[C@H](C#N)Nc1cc(-n2ncc3cc(C#N)c(N)nc32)ncc1C(=O)N[C@H]1CC[C@H](CCN2CCN(c3ccc(C4CCC(=O)NC4=O)cc3)C(C(F)(F)F)C2)CC1 (some centres unmarked) [P-186] | – |
| – | – | 1.4% | 6 nM | CC[C@@H]1CN(CC[C@H]2CC[C@H](c3cn(-c4cnc(-n5ncc6cc(C#N)cnc65)cc4N[C@H](C)C#N)nn3)CC2)CCN1c1ccc(N2CCC(=O)NC2=O)cn1 [P-394, 1-(4-(((R)-1-cyanoethyl)amino)-5-(4-((1R,4R)-4-(2-((R)-4-(5-(2,4-dioxotetrahydropyrimidin-1(2H)-yl)pyridin-2-yl)-3-ethylpiperazin-1-yl)ethyl)cyclohexyl)-1H-1,2,3-triazol-1-yl)pyridin-2-yl)-1H-pyrazolo[3,4-b]pyridine-5-carbonitrile] | AUC(0-t) [3, 5]: 0.884 µM·h; MRT [3, 5]: 2.2 h; half-life [3, 5]: 1.7 h; clearance [3, 5]: 11.8 mL/min/kg; Vd [3, 5]: 1.58 L/kg; bioavailability ([3]; mouse, plasma, PO 3.00 mg/kg vs IV 0.50 mg/kg, dose-normalized AUCLAST ratio, read-out: FPO (oral bioavailability)): 26.6%; AUC(0-t) ([3]; mouse, plasma, PO 3.00 mg/kg): 1.41 µM·h; Cmax ([3]; mouse, plasma, PO 3.00 mg/kg): 559 nM; Tmax ([3]; mouse, plasma, PO 3.00 mg/kg): 0.25 h |
